The record followed here is US9580430B2, “9H-pyrimido[4,5-B]indoles and related analogs as BET bromodomain inhibitors” (THE REGENTS OF THE UNIVERSITY OF MICHIGAN, priority 2014, dated 2017).

For the data set, the system named is RWPE and PC3 cells overexpressing ERG. Nature of the data set: Matrigel invasion assay, RWPE and PC3 cells overexpressing ERG. The class given is cell-based. The following applies: 500 nM. Here is the method:
Medium containing 10% FBS in the lower chamber served as chemoattractant. […] For colorimetric assays, the inserts were treated with 150 μl of 10% acetic acid and the absorbance measured at 560 nm using a spectrophotometer (GE Healthcare).

As for `Cc1sc2c(c1C)C(c1ccc(Cl)cc1)=N[C@@H](CC(=O)OC(C)(C)C)c1nnc(C)n1-2` [JQ1], the ERG-mediated invasion entry is “attenuation of ERG-mediated invasion”.
